Assay results: patent US6375974B1 (Mitsui Takeda Chemicals, Inc., priority 1998, dated 2002)

Tests used:
[1] = cited from earlier work
[2] = ethanol; cited from earlier work
[3] = tested on: various bacteria such as E. coli 0-157; details: at 1.0% and 1.5%; cited from earlier work
[4] = dissolution of fine grains in water by slow stirring; format: physicochemical; details: 15 g fine grains (80-mesh pass) in 10 l of water at 20° C., slowly stirred for 24 hours
From the text: Because of the low dissolution rate, fumaric acid cannot be completely dissolved but remains as fine grains giving a slurry in these conventional methods. […] When such an aqueous fumaric acid solution is employed in sterilizing meats, the remaining fumaric acid grains sometimes damage the meat tissue.

[5] = tested on: various gram negative bacteria; details: cited from earlier work
gram negative bacteria = details: cited from earlier work
Escherichia coli O-157 = details: cited from earlier work

O=C([O-])/C=C/C(=O)O.[Na+] [monosodium fumarate]
concentration showing bactericidal effects ([1]; aqueous solution): 0.8%
bactericidal effects ([1]; concentration of 0.6% or less): did not show bactericidal effects

CCO [ethanol]
time after which a bactericidal effect was exerted [2]: 60 min

O=C(O)/C=C/C(=O)O [fumaric acid]
bactericidal effect compared with other organic acids [3]: exceeding those of other organic acids
dissolution of fine grains [4]: not completely dissolved
bactericidal effect ([5]; gram negative bacteria (E. coli, salmonella, Shigella, etc.), short contact time): potent bactericidal effect
antibacterial effect ([5]; within a short time, compared with other organic acids): strong antibacterial effect
growth of gram negative bacteria (gram negative bacteria): inhibited the growth
bactericidal effect (Escherichia coli O-157): strong bactericidal effect
